The values that follow come from patent US10865203B2, “Ligands selective to alpha 6 subunit-containing GABAA receptors and their methods of use” (UWM Research Foundation, Inc., priority 2015, dated 2020).

“Also recorded” adds a separate entry of the source.

Series [1] is described as follows: Microsomal stability assay, mouse liver microsomes. In kind it is in vitro ADME. The settings on record: 10 μM test compound, 0.5 mg/mL protein, 37° C. As for the experimental part: (§1) 4 μL of 1 mM test compound at a final concentration of 10 μM dissolved in DMSO/ACN/Methanol/Ethanol was preincubated at 37° C. for 5 minutes on a digital heating shaking dry bath (Fischer scientific, Pittsburgh, Pa.) in a mixture containing 282 μL of water, 80 μL of phosphate buffer (0.5 M, pH 7.4), 20 μL of NADPH Regenerating System Solution A (BD Bioscience, San Jose, Calif.) and 4 μL of NADPH Regenerating System Solution B (BD Bioscience, San Jose, Calif.) in a total volume of 391.2 μL. Following preincubation, the reaction was initiated by addition of 8.8 μL of either human liver microsomes (BD Gentest, San Jose, Calif.), mouse liver microsomes (Life technologies, Rockford, Ill.), at a protein concentration of 0.5 mg/mL. Aliquots of 50 μL were taken at time intervals of 0 (without microsomes), 10, 20, 30, 40, 50 and 60 minutes. Each aliquot was added to 100 μL of cold acetonitrile solution containing 1 μM/2 μM internal standard. This was followed by sonication for 10 seconds and centrifugation at 10,000 rpm for 5 minutes. 100 μL of the supernatant was transferred into Spin-X HPLC filter tubes (Corning Incorporated, NY) and centrifuged at 13,000 rpm for 5 minutes. […] The ratio of the peak areas of the internal standard and test compound was calculated for every time point and the natural log of the ratio were plotted against time to determine the linear slope (k). […] All experiments were repeated three times in duplicates.

Series [2] in a line: Microsomal stability assay, human liver microsomes. In kind it is in vitro ADME. The settings on record: 10 μM test compound, 0.5 mg/mL protein, 37° C. As for the experimental part:
as §1
For orientation: Liver microsomes are a subcellular fraction often used to study metabolism.

The target in series [3] is T1, α6β3γ2 receptor (Rattus norvegicus, UniProt P30191+P63079).
T1 construct: expressed in transfected cells; host or cells: Xenopus laevis oocytes injected with subunit mRNA (3:1:5)
T1 sequence (P30191 20-453): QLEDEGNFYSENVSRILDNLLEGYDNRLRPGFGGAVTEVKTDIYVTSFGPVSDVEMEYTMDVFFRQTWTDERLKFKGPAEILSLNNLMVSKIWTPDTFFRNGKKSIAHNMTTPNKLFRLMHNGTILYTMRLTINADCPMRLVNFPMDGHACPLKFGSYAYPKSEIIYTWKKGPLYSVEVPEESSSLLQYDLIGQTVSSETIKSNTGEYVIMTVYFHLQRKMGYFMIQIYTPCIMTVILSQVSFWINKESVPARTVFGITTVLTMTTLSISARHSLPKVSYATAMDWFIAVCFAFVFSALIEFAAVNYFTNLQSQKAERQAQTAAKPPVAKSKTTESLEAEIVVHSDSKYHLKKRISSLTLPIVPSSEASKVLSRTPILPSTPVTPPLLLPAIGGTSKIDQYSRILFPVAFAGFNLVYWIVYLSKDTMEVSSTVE
T1 sequence (P63079 26-473): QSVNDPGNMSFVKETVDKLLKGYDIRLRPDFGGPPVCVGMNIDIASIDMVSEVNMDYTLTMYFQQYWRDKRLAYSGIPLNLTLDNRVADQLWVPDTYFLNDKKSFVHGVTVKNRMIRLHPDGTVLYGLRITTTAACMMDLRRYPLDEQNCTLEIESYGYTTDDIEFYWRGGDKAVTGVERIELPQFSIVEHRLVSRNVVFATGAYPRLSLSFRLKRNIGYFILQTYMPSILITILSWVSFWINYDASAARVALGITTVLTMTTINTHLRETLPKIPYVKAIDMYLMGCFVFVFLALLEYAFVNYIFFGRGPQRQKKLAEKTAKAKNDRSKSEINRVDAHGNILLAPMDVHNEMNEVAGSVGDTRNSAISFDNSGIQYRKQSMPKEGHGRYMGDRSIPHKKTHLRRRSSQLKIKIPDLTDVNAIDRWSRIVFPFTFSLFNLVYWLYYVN
T1 sequence (P18508 39-466 partner): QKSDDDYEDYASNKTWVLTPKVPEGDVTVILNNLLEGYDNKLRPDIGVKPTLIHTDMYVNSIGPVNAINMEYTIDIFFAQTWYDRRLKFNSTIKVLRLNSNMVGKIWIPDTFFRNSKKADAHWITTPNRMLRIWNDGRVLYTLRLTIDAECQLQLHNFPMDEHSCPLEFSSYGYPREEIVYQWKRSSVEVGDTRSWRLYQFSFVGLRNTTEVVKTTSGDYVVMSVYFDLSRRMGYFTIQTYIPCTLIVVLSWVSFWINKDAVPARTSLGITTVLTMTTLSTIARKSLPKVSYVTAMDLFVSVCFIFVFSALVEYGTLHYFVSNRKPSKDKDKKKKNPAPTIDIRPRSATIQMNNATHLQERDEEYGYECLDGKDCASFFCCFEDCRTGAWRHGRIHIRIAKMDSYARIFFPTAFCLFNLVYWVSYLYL
Briefly: Electrophysiology in Xenopus oocytes, modulation of GABA currents. In kind it is cell-based. The conditions noted are these: modulation of GABA EC3 currents. The protocol: Mature female Xenopus laevis (Nasco, Fort Atkinson, Wis., USA) were anaesthetized in a bath of ice-cold 0.17% Tricain (Ethyl-m-aminobenzoat, Sigma-Aldrich, St. Louis, Mo., USA) before decapitation and transfer of the frog's ovary to ND96 medium (96 mM NaCl, 2 mM KCl, 1 mM MgCl2, 5 mM HEPES; pH 7.5). Following incubation in 1 mg/mL collagenase (Sigma-Aldrich, St. Louis, Mo., USA) for 30 min, stage 5 to 6 oocytes were singled out of the ovary and defolliculated using a platinum wire loop. Oocytes were stored and incubated at 18° C. in NDE medium (96 mM NaCl, 2 mM KCl, 1 mM MgCl2, 5 mM HEPES, 1.8 mM CaCl2; pH 7.5) that was supplemented with 100 U per mL-1 penicillin, 100 μg per mL-1 streptomycin and 2.5 mM pyruvate. Oocytes were injected with an aqueous solution of mRNA. A total of 2.5 ng of mRNA per oocyte was injected. Subunit ratio was 1:1:5 for αxβγ2 (x=1, 2, 3, 5) and 3:1:5 for α4/6β3γ2 and αβδ receptors. Injected oocytes were incubated for at least 36 h before electrophysiological recordings. Oocytes were placed on a nylon-grid in a bath of NDE medium. For current measurements, the oocytes were impaled with two microelectrodes (2-3MΩ), which were filled with 2 M KCl. The oocytes were constantly washed by a flow of 6 mL per min-1 NDE that could be switched to NDE containing GABA and/or drugs. Drugs were diluted into NDE from DMSO solutions resulting in a final concentration of 0.1% DMSO. […] To test for modulation of GABA induced currents by compounds, a GABA concentration that was titrated to trigger 3-5% of the respective maximum GABA-elicited current of the individual oocyte (EC3-5) was applied to the cell together with various concentrations of tested compounds. All recordings were performed at room temperature at a holding potential of −60 mV using a Warner OC-725C TEV (Warner Instrument, Hamden, Conn., USA) or a Dagan CA-1B Oocyte Clamp or a Dagan TEV-200A TEV (Dagan Corporation, Mineapolis, Minn., USA). Data were digitized using a Digidata 1322A or 1550 data acquisition system (Axon Instruments, Union City, Calif., USA), recorded using Clampex 10.5 software (Molecular Devices, Sunnyvale, Calif., USA), and analyzed using Clampfit 10.5 and GraphPad Prism 6.0 (La Jolla, Calif., USA) software. Concentration-response data were fitted using the Hill equation. Data are given as mean±SEM from at least three oocytes of two batches.
For selected test compounds full dose response curves were recorded in α1-6β3γ2 receptors. For selected compounds, dose response curves in additional receptor subtypes (α1, 4, 6β3δ, α6β1, 2γ2, α1-6β3) were also obtained. For a wider panel of compounds, a two point screening pharmacology was obtained at 1 and 10 μM compound concentrations.

Series [4] deals with METH-impaired PPI in C57/B6 mice. Put plainly: PPI test, methamphetamine-impaired prepulse inhibition. Type of series: in vivo, mouse. The settings on record: for rescue of METH-impaired PPI: mice, compound 10 mg/kg i.p. 15 min before METH 2 mg/kg i.p. The protocol:
All animal experiments conducted at NTU were approved by the Institutional Animal Care and Use Committee of College of Medicine, National Taiwan University. C57/B6 (8-10 weeks) mice were used for the PPI test and Wistar rats (8-9 weeks) were used in the migraine model. Animals were housed in an animal room with a 12-h light/12-h dark cycle and free access to food and water.
The PPI test was conducted with a PPI apparatus (SR-LAB, San Diego Instruments, San Diego, Calif.) consisting of a startle chamber equipped with various programming acoustic stimulations. After acclimation, the mouse was gently placed in the startle chamber for a 4 min acclimation period with a background noise of 65 dB, which continued throughout the whole PPI test session. One PPI test session consisted of 4 types of startle trials, including the trial with the startle pulse (115 dB) alone (PULSEALONE; 115 dB, 20 ms), two trials with the startle pulse paired with 71 and 77 dB prepulses, respectively (PREPULSE+PULSE; 71 dB+115 dB and 77 dB+115 dB), and the trial without stimulus (NOSTIM; background 65 dB only). A test session started and ended, respectively, with four NOSTIM trials and four PULSEALONE trials. In between, each of the four types of trials was presented 14 times randomly, that is, 56 trials were given in a test session. The intertrial interval was given randomly from 5 to 20 s. In the PREPULSE+PULSE trial, a 71 or 77 dB prepulse was given 120 ms before the 115 dBpulse. The magnitude of PPI (PPI %) was determined, after summarizing the startle responses in PULSEALONE and PREPULSE+PULSE trials, according to the equation (PULSEALON−PREPULSE+PULSE)/PULSEALONE×100%. The tested compound or vehicle was given to the animal for 15 min, followed by methamphetamine (2 mg/kg). The PPI test was conducted 10 min after injection of methamphetamine. Data were expressed as the mean±S.E.M. Statistical comparisons among groups were analyzed by ANOVA with Tukey post hoc test, and differences between groups were analyzed by Student's t-test. Two-way ANOVA with Bonferroni's post hoc test was used to analyze differences in the time courses of locomotor activity among groups. Differences were considered significant if P<0.05.
Methamphetamine and apomorphine were dissolved in normal saline for i.p. And s.c. Injections, respectively. Tested compounds and haloperidol, when given by i.p. Injection, were dissolved in a vehicle containing 20% dmso, 20% Cremophor® el (polyoxyethylene castor, sigma-aldrich) and 60% normal saline. Furosemide was dissolved (20 nmole/μL) in dimethylsulfoxide for intra-cerebellar microinjection the i.p. or s.c. Injection volume was 10 mL/kg.

In the case of `[2H]C([2H])([2H])Oc1ccc(-n2nc3c4ccc(Br)cc4[nH]cc-3c2=O)cn1` [DK-II-58-1, 7-Bromo-2-(6-methoxy-d3-pyridin-3-yl)-2,5-dihydro-3H-pyrazolo[4,3-c]quinolin-3-one], in series [1], the “% left after 1 hr. (MLM)” value is 98.39 ± 0.06% and the “Half-life (min) (MLM)” value was determined as 4250 ± 0.001 min. In series [2], the “% left after 1 hr. (HLM)” value is reported as 97.8 ± 0.06% and the “Half-life (min) (HLM)” value is reported as 2341 ± 0.001 min.
On to `[2H]C([2H])([2H])Oc1ccc(-n2nc3c4cc(Cl)ccc4[nH]cc-3c2=O)cc1` [DK-I-93-1, 8-Chloro-2-(4-methoxy-d3-phenyl)-2,5-dihydro-3H-pyrazolo[4,3-c]quinolin-3-one], for which, in series [1], the “% left after 1 hr. (MLM)” value was 85.53 ± 0.07% and the “Half-life (min) (MLM)” value is recorded as 263 ± 5.96 min. Besides, in series [2], the “% left after 1 hr. (HLM)” value was 92.2 ± 0.15% and the “Half-life (min) (HLM)” value is 640 ± 126 min.
Turning to `[2H]C([2H])([2H])Oc1ccc(-n2nc3c4cc(Cl)ccc4[nH]cc-3c2=O)cn1` [DK-II-59-1, 8-Chloro-2-(6-methoxy-d3-pyridin-3-yl)-2,5-dihydro-3H-pyrazolo[4,3-c]quinolin-3-one], in series [1], the “% left after 1 hr. (MLM)” value is 85.1 ± 0.10% and the “Half-life (min) (MLM)” value stood at 250.62 ± 13 min. In addition, in series [2], the “% left after 1 hr. (HLM)” value worked out at 93 ± 0.12% and the “Half-life (min) (HLM)” value was determined as 725.8 ± 146 min.
In the case of `COc1ccc(-n2nc3c4cc(Cl)ccc4[nH]cc-3c2=O)cc1` [Compound 11, 8-Chloro-2-(4-methoxyphenyl)-2,5-dihydro-3H-pyrazolo[4,3-c]quinolin-3-one], the “% left after 1 hr. (MLM)” value in series [1] stood at 69.2 ± 0.15%. Further, the half-life at 10 μM in series [1] (mouse, liver microsomes, pH 7.4, read-out: Half-life (min) (MLM)) came out at 116 ± 5.2 min; in series [2] (human, liver microsomes, pH 7.4, read-out: Half-life (min) (HLM)), 135 ± 5 min. The “selectivity for α6β3γ2 over other αxβ3γ2 receptors” value in series [3] is “strongly modulates other GABAA receptor subtypes”. Moreover, the “% left after 1 hr. (HLM)” value in series [2] was 72.5 ± 0.11%. Further, the “effect of intra-cerebellar furosemide on the rescue of PPI” value in series [4] (furosemide 10 nmol intra-cerebellar microinjection) is on record as “prevented”. In addition, the “rescue of METH-impaired PPI” value is listed as “effective; also recorded: significantly rescued” in series [4] and “significantly rescued” in series [4] (listed as C11).
For `[2H]C([2H])([2H])Oc1ccc(-n2nc3c4ccc(OC)cc4[nH]cc-3c2=O)cn1` [DK-II-60-1, 7-Methoxy-2-(6-methoxy-d3-pyridin-3-yl)-2,5-dihydro-3H-pyrazolo[4,3-c]quinolin-3-one], in series [1], the “% left after 1 hr. (MLM)” value is given as 92.4 ± 0.12% and the “Half-life (min) (MLM)” value was found to be 640 ± 102 min. For the same molecule, in series [2], the “% left after 1 hr. (HLM)” value stood at 92.5 ± 0.12% and the “Half-life (min) (HLM)” value is on record as 592.5 ± 96 min.
Regarding `COc1ccc2c3nn(-c4ccc(OC)nc4)c(=O)c-3c[nH]c2c1` [DK-II-13-1, 7-Methoxy-2-(6-methoxypyridin-3-yl)-2,5-dihydro-3H-pyrazolo[4,3-c]quinolin-3-one], in series [1], the “% left after 1 hr. (MLM)” value came out at 74.77 ± 0.12% and the “Half-life (min) (MLM)” value is 139.2 ± 5.8 min. In series [2], the “% left after 1 hr. (HLM)” value came to 93 ± 0.14% and the “Half-life (min) (HLM)” value was 794 ± 182 min.
For `COc1ccc(-n2nc3c4cc(Cl)ccc4[nH]cc-3c2=O)cn1` [DK-II-18-1, 8-Chloro-2-(6-methoxypyridin-3-yl)-2,5-dihydro-3H-pyrazolo[4,3-c]quinolin-3-one] the same measures were 85.6 ± 0.12%, 265 ± 17 min, 91.6 ± 0.10% and 511 ± 44 min.

A word on the half-life: it is how long it takes for the measured level to halve.
